Measurements from US20240239752A1, “BICYCLIC HETEROAROMATIC INHIBITORS OF KLK5” (BioCryst Pharmaceuticals, Inc., priority 2021, published 2024).

Target: T1, recombinant human KLK5 (Homo sapiens, UniProt Q9Y337)
T1 construct: purchased Novoprotein or R&D Systems C415 or 1108-SE
T1 sequence (Q9Y337 23-293): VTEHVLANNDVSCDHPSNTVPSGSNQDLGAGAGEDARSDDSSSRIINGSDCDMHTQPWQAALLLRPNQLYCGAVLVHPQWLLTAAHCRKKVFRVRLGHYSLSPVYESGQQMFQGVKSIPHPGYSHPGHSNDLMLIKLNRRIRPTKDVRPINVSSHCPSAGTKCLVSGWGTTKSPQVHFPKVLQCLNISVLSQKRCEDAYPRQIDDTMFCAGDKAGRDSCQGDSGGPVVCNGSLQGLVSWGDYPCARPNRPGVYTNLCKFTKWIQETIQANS
Test: Kallikrein (KLK) 5 enzymatic assay (Boc-VPR-AMC fluorogenic substrate)
Assay type: biochemical
Settings: recombinant human KLK5 0.1 μg/well, Boc-VPR-AMC 100 μM, pH 7.5, room temperature, 1% DMSO; tested a minimum of three times
Method in brief: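 Recombinant human KLK5 (0.1 μg/well) was preincubated with compound at room temperature in 0.1 M NaH2PO4, pH 7.5, 1% DMSO, then started with 100 μM Boc-VPR-AMC. The rate was followed at 380/460 nm, and IC50 came from percent inhibition relative to enzyme alone, with at least three runs.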

Row | SMILES | IC50
1 | COc1ccc(OCc2nn(C3CCC3)c3ccc(-c4cccc5c(N)nccc45)cc23)c(CC(=O)O)c1 [Compound 171b, 2-(2-((5-(1-aminoisoquinolin-5-yl)-1-cyclobutyl-1H-indazol-3-yl)methoxy)-5-methoxyphenyl)acetic acid] | < 1000 nM
2 | CC(C)(C)OC(=O)NC1CC(n2nc3ccc(-c4ccc5ccnc(N)c5c4)cc3c2COc2ccccc2CC(=O)O)C1 (stereo not shown) [Compound 137b, 2-(2-((5-(1-aminoisoquinolin-7-yl)-2-(3-(tert-butoxycarbonylamino)cyclobutyl)-2H-indazol-3-yl)methoxy)phenyl)acetic acid] | 1000 to 10000 nM
3 | Nc1nccc2ccc(-c3ccc4nn(C5CCC5)c(COc5cc(OC(F)(F)F)ccc5CC(=O)O)c4c3)cc12 [Compound 153d, 2-(2-((5-(1-aminoisoquinolin-7-yl)-2-cyclobutyl-2H-indazol-3-yl)methoxy)-4-(trifluoromethoxy)phenyl)acetic acid] | > 10000 nM
4 | Nc1nccc2c(-c3ccc4c(c3)c(COc3ccccc3CC(=O)O)nn4CCF)cccc12 [Compound 183b, 2-(2-((5-(1-aminoisoquinolin-5-yl)-1-(2-fluoroethyl)-1H-indazol-3-yl)methoxy)phenyl)acetic acid] | < 1000 nM
5 | Cc1cccc(OCc2nn(CC3CCOC3)c3ccc(-c4ccc5ccnc(N)c5c4)cc23)c1CC(=O)O (stereo not shown) [Compound 95b, 2-(2-((5-(1-aminoisoquinolin-7-yl)-1-((tetrahydrofuran-3-yl)methyl)-1H-indazol-3-yl)methoxy)-6-methylphenyl)acetic acid] | < 1000 nM
6 | CC(C)(C)OC(=O)N1CCC(n2nc(COc3ccccc3CC(=O)O)c3cc(-c4ccc5ccnc(N)c5c4)ccc32)C1 (stereo not shown) [Compound 87c, 2-(2-((5-(1-aminoisoquinolin-7-yl)-1-(1-(tert-butoxycarbonyl)pyrrolidin-3-yl)-1H-indazol-3-yl)methoxy)phenyl)acetic acid] | < 1000 nM
7 | COC(=O)N1CCC2(CC1)CC(Oc1cc(OC)ccc1CC(=O)O)c1cc(-c3ccc4ccnc(N)c4c3)ccc12 (stereo not shown) [Compound 452c, 2-(2-((5-(1-aminoisoquinolin-7-yl)-1′-(methoxycarbonyl)-2,3-dihydrospiro[indene-1,4′-piperidin]-3-yl)oxy)-4-methoxyphenyl)acetic acid] | < 1000 nM
8 | Nc1nccc2c(-c3ccc4c(c3)c(COc3cccc(C5CC5)c3CC(=O)O)nn4C3CCOC3)cccc12 (stereo not shown) [Compound 291b, 2-(2-((5-(1-aminoisoquinolin-5-yl)-1-(tetrahydrofuran-3-yl)-1H-indazol-3-yl)methoxy)-6-cyclopropylphenyl)acetic acid] | < 1000 nM
9 | COC(=O)Cc1ccc(OC)cc1OCc1c2cc(-c3ccc4ccnc(N)c4c3)ccc2nn1C1CCOC1 (stereo not shown) [Compound 13d, methyl 2-(2-((5-(1-aminoisoquinolin-7-yl)-2-(tetrahydrofuran-3-yl)-2H-indazol-3-yl)methoxy)-4-methoxyphenyl)acetate] | > 10000 nM
10 | Cc1cccc(OCc2nn(C3CCCC3)c3ccc(-c4ccc5ccnc(N)c5c4)cc23)c1CC(=O)O [Compound 240b, 2-(2-((5-(1-aminoisoquinolin-7-yl)-1-cyclopentyl-1H-indazol-3-yl)methoxy)-6-methylphenyl)acetic acid] | < 1000 nM
11 | CC(C)n1nc(COc2ccccc2CC(=O)O)c2cc(-c3ccc4ncc(N)n4n3)ccc21 [Compound 55c, 2-(2-((5-(3-aminoimidazo[1,2-b]pyridazin-6-yl)-1-isopropyl-1H-indazol-3-yl)methoxy)phenyl)acetic acid] | > 10000 nM
12 | CC(C)n1nc(COc2ccccc2CC(=O)O)c2cc(-c3cccc4c(N)noc34)ccc21 [Compound 30c, 2-(2-((5-(3-aminobenzo[d]isoxazol-7-yl)-1-isopropyl-1H-indazol-3-yl)methoxy)phenyl)acetic acid] | > 10000 nM
13 | CC(C)OC(=O)N1CC[C@@H](n2nc(COc3ccccc3CC(=O)O)c3cc(-c4cccc5c(N)nccc45)ccc32)C1 [Compound 363b, (R)-2-(2-((5-(1-aminoisoquinolin-5-yl)-1-(1-(isopropoxycarbonyl)pyrrolidin-3-yl)-1H-indazol-3-yl)methoxy)phenyl)acetic acid] | < 1000 nM
14 | COc1cnc(N)c2cc(-c3ccc4c(c3)c(COc3ccccc3CC(=O)O)nn4C(C)C)ccc12 [Compound 74d, 2-(2-((5-(1-amino-4-methoxyisoquinolin-7-yl)-1-isopropyl-1H-indazol-3-yl)methoxy)phenyl)acetic acid] | 1000 to 10000 nM
15 | N#Cc1cccc(OCc2nn(C3CCOC3)c3ccc(-c4cccc5c(N)nccc45)cc23)c1CC(=O)O (stereo not shown) [Compound 293b, 2-(2-((5-(1-aminoisoquinolin-5-yl)-1-(tetrahydrofuran-3-yl)-1H-indazol-3-yl)methoxy)-6-cyanophenyl)acetic acid] | < 1000 nM
16 | CC(C(=O)O)c1ccccc1OCc1nn(C2CCOC2)c2ccc(-c3cccc4c(N)nccc34)cc12 (stereo not shown) [Compound 241f, 2-(2-((5-(1-aminoisoquinolin-5-yl)-1-(tetrahydrofuran-3-yl)-1H-indazol-3-yl)methoxy)phenyl)propanoic acid] | < 1000 nM
17 | Cc1cccc(O[C@@H]2CCc3ccc(-c4ccc5ccnc(N)c5c4)cc32)c1CC(=O)O [Compound 260b, (R)-2-(2-((6-(1-aminoisoquinolin-7-yl)-2,3-dihydro-1H-inden-1-yl)oxy)-6-methylphenyl)acetic acid] | < 1000 nM
18 | COc1c(-c2ccc3c(c2)c(COc2ccccc2CC(=O)O)nn3C(C)C)ccnc1CN [Compound 326d, 2-(2-((5-(2-(aminomethyl)-3-methoxypyridin-4-yl)-1-isopropyl-1H-indazol-3-yl)methoxy)phenyl)acetic acid] | < 1000 nM
19 | Cc1cc(-c2ccc3ccnc(N)c3c2)cc2c(COc3ccccc3CC(=O)O)coc12 [Compound 233f, 2-(2-((5-(1-aminoisoquinolin-7-yl)-7-methylbenzofuran-3-yl)methoxy)phenyl)acetic acid] | 1000 to 10000 nM
20 | COc1ccc(CC(=O)O)c(OCc2c3cc(-c4ccc5ccnc(N)c5c4)ccc3nn2C2CCOC2)c1 (stereo not shown) [Compound 13c, 2-(2-((5-(1-aminoisoquinolin-7-yl)-2-(tetrahydrofuran-3-yl)-2H-indazol-3-yl)methoxy)-4-methoxyphenyl)acetic acid] | 1000 to 10000 nM
21 | Nc1nccc2ccc(-c3ccc4c(c3)c(COc3ccccc3CC(=O)O)nn4C3CCCCO3)cc12 (stereo not shown) [Compound 93b, 2-(2-((5-(1-aminoisoquinolin-7-yl)-1-(tetrahydro-2H-pyran-2-yl)-1H-indazol-3-yl)methoxy)phenyl)acetic acid] | < 1000 nM

Second part, the compound after the results:

Row | IC50 | SMILES
22 | < 1000 nM | Cn1nc(COc2ccccc2CC(=O)O)c2cc(-c3ccc4ccnc(N)c4c3)cnc21 [Compound 196e, 2-(2-((5-(1-aminoisoquinolin-7-yl)-1-methyl-1H-pyrazolo[3,4-b]pyridin-3-yl)methoxy)phenyl)acetic acid]
23 | < 1000 nM | Cc1ccc(CC(=O)O)c(O[C@@H]2CCc3ccc(-c4ccc5ccnc(N)c5c4)cc32)c1 [Compound 425c, (R)-2-(2-((6-(1-aminoisoquinolin-7-yl)-2,3-dihydro-1H-inden-1-yl)oxy)-4-methylphenyl)acetic acid]
24 | < 1000 nM | Nc1nccc2ccc(-c3ccc4c(c3)[C@H](Oc3cc(F)ccc3CC(=O)O)CC4)cc12 [Compound 421c, (R)-2-(2-((6-(1-aminoisoquinolin-7-yl)-2,3-dihydro-1H-inden-1-yl)oxy)-4-fluorophenyl)acetic acid]
25 | 1000 to 10000 nM | Cc1cc2c(-c3ccc4c(c3)c(COc3ccccc3CC(=O)O)nn4C(C)C)cccc2c(N)n1 [Compound 220d, 2-(2-((5-(1-amino-3-methylisoquinolin-5-yl)-1-isopropyl-1H-indazol-3-yl)methoxy)phenyl)acetic acid]
26 | < 1000 nM | Nc1nccc2c(-c3ccc4[nH]nc(COc5ccccc5CC(=O)O)c4c3)cccc12 [Compound 97a, 2-(2-((5-(1-aminoisoquinolin-5-yl)-1H-indazol-3-yl)methoxy)phenyl)acetic acid]
27 | < 1000 nM | Nc1nccc2ccc(-c3ccc4c(c3)c(COc3ccccc3CC(=O)O)nn4CC3CCC3)cc12 [Compound 253b, 2-(2-((5-(1-aminoisoquinolin-7-yl)-1-(cyclobutylmethyl)-1H-indazol-3-yl)methoxy)phenyl)acetic acid]
28 | < 1000 nM | Nc1nccc2c(-c3cc(NCC4CC4)c4c(c3)c(COc3ccccc3CC(=O)O)nn4C3CCCCO3)cccc12 (stereo not shown) [Compound 107d, 2-(2-((5-(1-aminoisoquinolin-5-yl)-7-((cyclopropylmethyl)amino)-1-(tetrahydro-2H-pyran-2-yl)-1H-indazol-3-yl)methoxy)phenyl)acetic acid]
29 | > 10000 nM | Nc1nccc2ccc(-c3ccc4nc(C5CC5)cc(COc5ccccc5CC(=O)O)c4c3)cc12 [Compound 12e, 2-(2-((6-(1-aminoisoquinolin-7-yl)-2-cyclopropylquinolin-4-yl)methoxy)phenyl)acetic acid]
30 | < 1000 nM | COCCC1(CCOC)CC(Oc2ccccc2CC(=O)O)c2cc(-c3cccc4c(N)nccc34)ccc21 (stereo not shown) [Compound 447b, 2-(2-((6-(1-aminoisoquinolin-5-yl)-3,3-bis(2-methoxyethyl)-2,3-dihydro-1H-inden-1-yl)oxy)phenyl)acetic acid]
31 | < 1000 nM | Nc1nccc2c(-c3cc(Cl)c4c(c3)C(Oc3ccccc3CC(=O)O)CC4)cccc12 (stereo not shown) [Compound 258a, 2-(2-((6-(1-aminoisoquinolin-5-yl)-4-chloro-2,3-dihydro-1H-inden-1-yl)oxy)phenyl)acetic acid]
